Assay results: patent publication US10183944B2 (Asana Biosciences, LLC, priority 2011, dated 2019)
Like-named read-outs stand apart in the source and are kept apart here. Marks after values point to notes of the source that are not given here.

Assays:
RBL2H3 cells = assay: Degranulation assay: β-hexosaminidase release during immune complex mediated degranulation; assay type: cell-based, rat; settings: Rattus norvegicus, RBL-2H3; for inhibition at 1 µM: read-out: Degranulation % inhibition at 1 μM; for EC50: read-out: Degranulation EC50
How it was run: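 RBL2H3 cells sensitized overnight (or 24 h) with anti-DNP rat IgE, pretreated 15 min with compounds in 0.5% DMSO, then challenged with DNP-BSA for 45–60 min. β-Hexosaminidase in supernatant read fluorometrically (Ex 355/Em 460 nm) with β-NAG substrate, 30 min RT; % release/inhibition calculated.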

[1] = tested on: Collagen Induced Arthritis (CIA) in female Lewis rats; assay: In vivo chronic study: Collagen Induced Arthritis (CIA); design: species or system rat; settings: 2 × 30 mg/Kg
Description: Collagen Induced Arthritis (CIA) is a well characterized model of human rheumatoid arthritis (RA) that can be induced in susceptible animals following immunization with type II collagen (cII) in Freund's adjuvant. […] Pathophysiology of CIA consists of T cell component, as evidenced by increased infiltration of T-cells in joint synovium and also, by attenuation of CIA in T-cell deficient mice. CIA development involves B cell component too, as is evidenced by circulating cII antibody in disease animals and also, failure to develop the disease in xid mice/B cell deficient mice/CXCR5 null mice. […] See, Pine, “Inflammation and bone erosion are suppressed in models of rheumatoid arthritis following treatment with a novel Syk inhibitor”, Clin. Immunol., 2007, 124(3):244-57; Xiong cha, “Suppression of the onset and progression of collagen-induced arthritis in rats by QFGJS, a preparation from an anti-arthritic Chinese herbal formula”, J. Ethnopharmacology (2007) 110:39-48; and Stolina, “The evolving systemic and local biomarker milieu at different stages of disease progression in rat collagen induced arthritis”, Biomarkers (2008) 13(7-8):692-712, which are herein incorporated by reference.
Female Lewis rats (8 per group, 6-8 weeks old) were immunized on day 1 with type II collagen (Immunization grade Bovine type II; Chondrex; Cat #20021) emulsified with Complete Freund's Adjuvant (Sigma; Cat# F5881) at a final concentration of 1.2 mg/mL). For the initial immunization, the animals were injected at the base of the tail with 300 μg of the cII (0.25 mL/rat). A booster injection of the same type II collagen emulsified with Incomplete Freund's Adjuvant (Sigma, Cat #F5506) (0.25 mL/rat) was given to the animals on day 8 at the base of the tail (100 μg). The final cII concentration in the booster was […].
Animals with an arthritic score of ≥1 were grouped and dosing with test compound (30 mg/kg bid) or methotrexate (0.5 mg/kg) started between about day 12 to day 14, with daily dosing of their respective compounds continuing for 10 days.
Edema: Paw volumes are measured by Plethysmometry for the animals before induction of CIA (Basal readings) and on Day 1, 3, 6 and 9 of dosing period. Both hind paw volumes were measured and edema was calculated by subtracting from the basal mean.
Arthritic score: Animals were scored for the symptoms of arthritis every day starting from Day of onset of disease till the end of the study. Both the hind paws were scored and the total scores were averaged and compared with control. The scoring pattern was as follows:
The percent inhibition of Edema was calculated with respect to control by the formula: […]
The percent inhibition of Arthritic score was calculated with respect to control by the formula: […]
Means of different groups were compared with control using one way ANOVA followed by Dunnett's test. Significance is represented as follows.

[2] = Assay Protocol A (24 well format)
[3] = Assay Protocol B (96 well format)

EC50 (RBL2H3 cells; [2]) [nM] | Structure (SMILES) | inhibition at 1 µM (RBL2H3 cells; [2]) [%] | Percent inhibition of Edema (Day 9 of dosing) [1] | Percent inhibition of Arthritic score (Day 10 of dosing) [1] | inhibition at 1 µM (RBL2H3 cells; [3]) [%] | EC50 (RBL2H3 cells; [3]) [nM]
47 | O=C(O)C1CCN(c2ccc(Nc3nc(-c4ccccc4)nc4cn[nH]c(=O)c34)cc2)CC1 [Example 13, 1-(4-(5-oxo-2-phenyl-5,6-dihydropyrimido[4,5-d]pyridazin-4-ylamino)phenyl)piperidine-4-carboxylic acid] | 100 | – | – | – | –
– | N#CCC1CCN(c2nc(Nc3ccc(N4CCN(CCO)CC4)cc3)c3c(=O)[nH]ncc3n2)CC1 [Example 191, 2-(1-(4-((4-(4-(2-hydroxyethyl)piperazin-1-yl)phenyl)amino)-5-oxo-5,6-dihydropyrimido[4,5-d]pyridazin-2-yl)piperidin-4-yl)acetonitrile] | – | 90*** | 100*** | 92 | 21
86 | Cl.O=c1[nH]ncc2nc(-c3ccccc3)nc(Nc3ccc(CN4CCNCC4)cc3)c12 [Example 7, 2-phenyl-4-(4-(piperazin-1-ylmethyl)phenylamino)pyrimido[4,5-d]pyridazin-5(6H)-one hydrochloride] | 92 | – | – | – | –
– | O=C(O)C1CC12CCN(c1ccc(Nc3nc(N4CCCCCC4)nc4cn[nH]c(=O)c34)cc1)CC2 (stereo not drawn) [Example 62, 6-(4-((2-(azepan-1-yl)-5-oxo-5,6-dihydropyrimido[4,5-d]pyridazin-4-yl)amino)phenyl)-6-azaspiro[2.5]octane-1-carboxylic acid] | – | 69*** | 81*** | 100 | 49
– | O=C(O)CC1CCN(c2ccc(Nc3nc(N4CCCCCC4)nc4cn[nH]c(=O)c34)cn2)CC1 [Example 108, 2-(1-(5-((2-(azepan-1-yl)-5-oxo-5,6-dihydropyrimido[4,5-d]pyridazin-4-yl)amino)pyridin-2-yl)piperidin-4-yl) acetic acid] | – | 42*** | 53*** | 98 | 68
19 | O=C(O)C1CC12CCN(c1ccc(Nc3nc(-c4ccccc4)nc4cn[nH]c(=O)c34)cc1)CC2 (stereo not drawn) [Example 19, 6-(4-(5-oxo-2-phenyl-5,6-dihydropyrimido[4,5-d]pyridazin-4-ylamino)phenyl)-6-azaspiro[2.5]octane-1-carboxylic acid] | 100 | 5** | 20* | – | –
– | N#CCC1CCN(c2nc(Nc3ccc(N4CCC(O)CC4)cc3)c3c(=O)[nH]ncc3n2)CC1 [Example 189, 2-(1-(4-((4-(4-hydroxypiperidin-1-yl)phenyl)amino)-5-oxo-5,6-dihydropyrimido[4,5-d]pyridazin-2-yl)piperidin-4-yl)acetonitrile] | – | 90*** | 94*** | 98 | 14
